# Experimental data: ChEMBL document CHEMBL1201862, “PubChem BioAssay data set” (2004)
#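 Five compound concentrations were applied to cells in 96-well plates for 48 hours; endpoints were derived by simple linear interpolation of the resulting dose-response curve. Here, GI50 denotes the concentration required for 50% inhibition of growth.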 Calls of active or inactive are those of the source. Rule as the data show it: active = GI50 up to about 1.1 µM and inactive = higher. Where a SMILES comes first, the peptide text is derived from it. [ ]: non-standard residue; d: D form. The star is where a group is joined. NMeF = CN[C@@H](Cc1ccccc1)C(=O)O; NMeV = CN[C@H](C(=O)O)C(C)C; Boc = CC(C)(C)OC(=O)*; OBn = c1ccc(CO*)cc1
# Experiments:
# Experiment in all cases: DTP human tumour cell line panel, 48 h
# MCF7 = system: MCF7
# SK-OV-3 = system: SK-OV-3
# NCI/ADR-RES = system: NCI/ADR-RES
# SK-MEL-2 = system: SK-MEL-2
# LOX IMVI = system: LOX IMVI
# HOP-62 = system: HOP-62
# LXFL 529 = system: LXFL 529
# HCT-15 = system: HCT-15
# IGROV-1 = system: IGROV-1
# DMS-114 = system: DMS-114
# A549 = system: A549
# HCC 2998 = system: HCC 2998
# ACHN = system: ACHN
# NCI-H23 = system: NCI-H23
# EKVX = system: EKVX
# Hs-578T = system: Hs-578T
# SR = system: SR
# HT-29 = system: HT-29
# A498 = system: A498
# SW-620 = system: SW-620
# SN12C = system: SN12C
# DMS-273 = system: DMS-273
# CCRF-CEM = system: CCRF-CEM
# HOP-18 = system: HOP-18
# BT-549 = system: BT-549
# K562 = system: K562
# UACC-257 = system: UACC-257
# SNB-19 = system: SNB-19
# PC-3 = system: PC-3
# NCI-H460 = system: NCI-H460
# SK-MEL-5 = system: SK-MEL-5
# SF-268 = system: SF-268
# KM12 = system: KM12
# RPMI-8226 = system: RPMI-8226
# CAKI-1 = system: CAKI-1
# NCI-H226 = system: NCI-H226
# TK-10 = system: TK-10
# NCI-H522 = system: NCI-H522
# SK-MEL-28 = system: SK-MEL-28
# SF-295 = system: SF-295
# HOP-92 = system: HOP-92
# SF-539 = system: SF-539
# MDA-MB-231 = system: MDA-MB-231
# RXF 393 = system: RXF 393
# 786-0 = system: 786-0
# HCT-116 = system: HCT-116
# OVCAR-4 = system: OVCAR-4
# DU-145 = system: DU-145
# SNB-75 = system: SNB-75
# UO-31 = system: UO-31
# COLO 205 = system: COLO 205
# MOLT-4 = system: MOLT-4
# OVCAR-3 = system: OVCAR-3
# M14 = system: M14
# OVCAR-5 = system: OVCAR-5
# UACC-62 = system: UACC-62
# MDA-MB-435 = system: MDA-MB-435
# U-251 = system: U-251
# T47D = system: T47D
# HL-60 = system: HL-60
# DLD-1 = system: DLD-1
smiles,measurement,setting,value
CC(C)[C@@H](C(=O)N1CCC[C@H]1C(=O)OCc1ccccc1)N(C)C(=O)[C@H](C(C)C)N(C)C(=O)[C@H](Cc1ccccc1)N(C)C(=O)[C@H](NC(=O)OC(C)(C)C)C(C)C (Boc-[dV][NMeF][NMeV][NMeV]P-OBn),GI50,MCF7,> 50 µM (inactive)
same,GI50,SK-OV-3,> 50 µM (inactive)
same,GI50,NCI/ADR-RES,> 50 µM (inactive)
same,GI50,SK-MEL-2,> 50 µM (inactive)
same,GI50,LOX IMVI,> 50 µM (inactive)
same,GI50,HOP-62,> 50 µM (inactive)
same,GI50,LXFL 529,22.2 µM (inactive)
same,GI50,HCT-15,17.3 µM
same,GI50,IGROV-1,> 50 µM (inactive)
same,GI50,DMS-114,19.6 µM (inactive)
same,GI50,A549,> 50 µM (inactive)
same,GI50,HCC 2998,> 50 µM (inactive)
same,GI50,ACHN,> 50 µM (inactive)
same,GI50,NCI-H23,> 50 µM (inactive)
same,GI50,EKVX,> 50 µM (inactive)
same,GI50,Hs-578T,> 50 µM (inactive)
same,GI50,SR,18.6 µM (inactive)
same,GI50,HT-29,> 50 µM (inactive)
same,GI50,A498,> 50 µM (inactive)
same,GI50,SW-620,> 50 µM (inactive)
same,GI50,SN12C,> 50 µM (inactive)
same,GI50,DMS-273,24.3 µM (inactive)
same,GI50,CCRF-CEM,> 50 µM (inactive)
same,GI50,HOP-18,> 100 µM (inactive)
same,GI50,BT-549,> 50 µM (inactive)
same,GI50,K562,> 50 µM (inactive)
same,GI50,UACC-257,> 50 µM (inactive)
same,GI50,SNB-19,> 50 µM (inactive)
same,GI50,PC-3,> 50 µM (inactive)
same,GI50,NCI-H460,> 50 µM (inactive)
same,GI50,SK-MEL-5,> 50 µM (inactive)
same,GI50,SF-268,> 50 µM (inactive)
same,GI50,KM12,> 50 µM (inactive)
same,GI50,RPMI-8226,> 50 µM (inactive)
same,GI50,CAKI-1,> 50 µM (inactive)
same,GI50,NCI-H226,> 50 µM (inactive)
same,GI50,TK-10,> 50 µM (inactive)
same,GI50,NCI-H522,> 50 µM (inactive)
same,GI50,SK-MEL-28,> 50 µM (inactive)
same,GI50,SF-295,> 50 µM (inactive)
same,GI50,HOP-92,> 50 µM (inactive)
same,GI50,SF-539,> 50 µM (inactive)
same,GI50,MDA-MB-231,> 50 µM (inactive)
same,GI50,RXF 393,> 50 µM (inactive)
same,GI50,786-0,> 50 µM (inactive)
same,GI50,HCT-116,> 50 µM (inactive)
same,GI50,OVCAR-4,> 50 µM (inactive)
same,GI50,DU-145,> 50 µM (inactive)
same,GI50,SNB-75,> 50 µM (inactive)
same,GI50,UO-31,> 50 µM (inactive)
same,GI50,COLO 205,> 50 µM (inactive)
same,GI50,MOLT-4,> 50 µM (inactive)
same,GI50,OVCAR-3,> 50 µM (inactive)
same,GI50,M14,> 50 µM (inactive)
same,GI50,OVCAR-5,> 50 µM (inactive)
same,GI50,UACC-62,> 50 µM (inactive)
same,GI50,MDA-MB-435,> 50 µM (inactive)
same,GI50,U-251,> 50 µM (inactive)
same,GI50,T47D,> 50 µM (inactive)
same,GI50,HL-60,> 50 µM (inactive)
same,GI50,DLD-1,25.4 µM (inactive)
